In US20060166900A1, “Salt of morphine-6-glucuronide” (CeNeS Limited, priority 2002, published 2006):

Columns and labels:
Assay type in all cases: physicochemical
[1] = Visual appearance on storage (Example 3)
Procedure: (§1) Each test material was stored between 2-8*C prior to placing on stability. Each material was sub-divided into 900 mg aliquots, transferred to brown opaque HDPE plastic bottles and flushed with Argon prior to sealing. Sufficient samples were provided for each time point as well as spares for each storage condition. The samples were placed in appropriate incubators previously commissioned at storage conditions 25° C./60% RH, 40° C./75% RH and 60° C.
The samples were stored for analysis according to the following table: […]

[2] = Colour of solution by visible spectrophotometry on storage (Example 3); settings: 5% w/v solution in water
Procedure: Colour of solution by UV spectrophotometry.
as §1
Colour by Visible Spectrophotometry
A 5% w/v solution of test material was prepared in water and the absorbance measured at 420 nm in a 1 cm silica cell using a Unicam UV4 Visible/UV spectrophotometer.

[3] = Water content by Karl Fisher analysis on storage (Example 3)
Procedure: Water content (% w/w) by Karl Fisher analysis
as §1
Water Content by Karl Fisher Analysis
Water content was determined in duplicate on an aliquot of equilibrated material (approximately 100 mg) using a Tritrino 720 KFS Titrator.

[4] = Stability indicating HPLC assay and related substances on storage (Example 3)
Procedure: Assay (% w/w) and related substances determination
as §1
Testing Procedures Test for Identity Content and Impurities
Testing was performed in duplicate (2×25 mg) in accordance with a stability indicating HPLC assay method. The assay results were reported as M6G as is, M6G as the anhydrous, solvent free material and the anhydrous solvent free material corrected for the salt form using the relevant conversion factor.

With `CN1CCC23c4c5ccc(O)c4OC2C(OC2OC(C(=O)O)C(O)C(O)C2O)C=CC3C1C5.O=P(O)(O)O` (stereo not shown) [Morphine-6-glucuronide phosphate] the Appearance ([1]; 1 month, 25° C./60% RH) was “White crystalline powder”, the Appearance ([1]; 1 month, 40° C./75% RH) was “Slightly yellow crystalline powder” and the Appearance ([1]; 1 month, 60° C.) was “Pale yellow crystalline powder”. For the same compound, the Appearance ([1]; 3 months, 25° C./60% RH) was “White crystalline powder”, the Appearance ([1]; 3 months, 25° C./60% RH, listed as phosphate) was “white crystalline solids” and the Appearance ([1]; 3 months, 40° C./75% RH) was “Slightly yellow crystalline powder”. The Appearance ([1]; Initial) was “White crystalline powder”, the Colour ([2]; 1 month, 25° C./60% RH) was 0.053 Abs@420 nm and the Colour ([2]; 1 month, 40° C./75% RH) was 0.308 Abs@420 nm. The Colour ([2]; 1 month, 60° C.) was 0.787 Abs@420 nm, the Colour ([2]; 3 months, 25° C./60% RH) was 0.098 Abs@420 nm and the Colour ([2]; 3 months, 40° C./75% RH) was 0.878 Abs@420 nm. It also gave a Colour ([2]; Initial) of 0.034 Abs@420 nm, a Moisture ([3]; 1 month, 25° C./60% RH) of 3.91 % w/w and a Moisture ([3]; 1 month, 40° C./75% RH) of 9.28 % w/w. It also gave a Moisture ([3]; 1 month, 60° C.) of 5.12 % w/w, a Moisture ([3]; 3 months, 25° C./60% RH) of 5.06 % w/w and a Moisture ([3]; 3 months, 40° C./75% RH) of 11.88 % w/w. For the same compound, the “increase in moisture content compared to initial” value ([3]; 40° C./75% RH) was “around 8%”, the Moisture ([3]; Initial) was 3.12 % w/w and the “Known Related Substances HN33177” value ([4]; 1 month, 25° C./60% RH) was 0.78%. The “Known Related Substances HN67003” value ([4]; 1 month, 25° C./60% RH) was 0.04%, the “Known Related Substances HN75083” value ([4]; 1 month, 25° C./60% RH) was 0.03% and the “M6G Assay, Anhydrous basis” value ([4]; 1 month, 25° C./60% RH) was 91.37 % w/w. The “M6G Assay, As is basis” value ([4]; 1 month, 25° C./60% RH) was 84.57 % w/w, the “M6G Assay, Corrected for the salt form” value ([4]; 1 month, 25° C./60% RH) was 110.76 % w/w and the “Total Known” value ([4]; 1 month, 25° C./60% RH) was 0.85%. The “Total Related Substances” value ([4]; 1 month, 25° C./60% RH) was 1.41%, the “Total Unknown” value ([4]; 1 month, 25° C./60% RH) was 0.56% and the “Known Related Substances HN33177” value ([4]; 1 month, 40° C./75% RH) was 0.70%. The “Known Related Substances HN67003” value ([4]; 1 month, 40° C./75% RH) was 0.53%, the “Known Related Substances HN75083” value ([4]; 1 month, 40° C./75% RH) was 0.14% and the “M6G Assay, Anhydrous basis” value ([4]; 1 month, 40° C./75% RH) was 92.00 % w/w. The “M6G Assay, As is basis” value ([4]; 1 month, 40° C./75% RH) was 80.20 % w/w, the “M6G Assay, Corrected for the salt form” value ([4]; 1 month, 40° C./75% RH) was 111.52 % w/w and the “Total Known” value ([4]; 1 month, 40° C./75% RH) was 1.37%. For the same compound, the “Total Related Substances” value ([4]; 1 month, 40° C./75% RH) was 3.44%, the “Total Unknown” value ([4]; 1 month, 40° C./75% RH) was 2.07% and the “Known Related Substances HN33177” value ([4]; 1 month, 60° C.) was 0.70%. The “Known Related Substances HN67003” value ([4]; 1 month, 60° C.) was 0.90%, the “Known Related Substances HN75076” value ([4]; 1 month, 60° C.) was 0.03% and the “Known Related Substances HN75083” value ([4]; 1 month, 60° C.) was 0.27%. The “Known Related Substances Morphine” value ([4]; 1 month, 60° C.) was 0.18%, the “M6G Assay, Anhydrous basis” value ([4]; 1 month, 60° C.) was 88.33 % w/w and the “M6G Assay, As is basis” value ([4]; 1 month, 60° C.) was 80.69 % w/w. For the same compound, the “M6G Assay, Corrected for the salt form” value ([4]; 1 month, 60° C.) was 107.08 % w/w, the “Total Known” value ([4]; 1 month, 60° C.) was 2.08% and the “Total Related Substances” value ([4]; 1 month, 60° C.) was 5.43%. For the same compound, the “Total Unknown” value ([4]; 1 month, 60° C.) was 3.35%, the “stability based on % w/w assay” value ([4]; 3 month assay data) was “most stable” and the “Known Related Substances HN33177” value ([4]; 3 months, 25° C./60% RH) was 0.78%. The “Known Related Substances HN67003” value ([4]; 3 months, 25° C./60% RH) was 0.16%, the “Known Related Substances HN75076” value ([4]; 3 months, 25° C./60% RH) was 0.03% and the “Known Related Substances HN75083” value ([4]; 3 months, 25° C./60% RH) was 0.19%. The “Known Related Substances Morphine” value ([4]; 3 months, 25° C./60% RH) was 0.07%, the “M6G Assay, Anhydrous basis” value ([4]; 3 months, 25° C./60% RH) was 91.16 % w/w and the “M6G Assay, As is basis” value ([4]; 3 months, 25° C./60% RH) was 84.25 % w/w. For the same compound, the “M6G Assay, Corrected for the salt form” value ([4]; 3 months, 25° C./60% RH) was 110.50 % w/w, the “Total Known” value ([4]; 3 months, 25° C./60% RH) was 1.23% and the “Total Related Substances” value ([4]; 3 months, 25° C./60% RH) was 2.31%. For the same compound, the “Total Unknown” value ([4]; 3 months, 25° C./60% RH) was 1.08%, the “Known Related Substances HN33177” value ([4]; 3 months, 40° C./75% RH) was 0.59% and the “Known Related Substances HN67003” value ([4]; 3 months, 40° C./75% RH) was 0.75%. For the same compound, the “Known Related Substances HN75076” value ([4]; 3 months, 40° C./75% RH) was 0.12%, the “Known Related Substances HN75083” value ([4]; 3 months, 40° C./75% RH) was 0.06% and the “Known Related Substances Morphine” value ([4]; 3 months, 40° C./75% RH) was 0.32%. For the same compound, the “M6G Assay, Anhydrous basis” value ([4]; 3 months, 40° C./75% RH) was 92.40 % w/w, the “M6G Assay, As is basis” value ([4]; 3 months, 40° C./75% RH) was 79.02 % w/w and the “M6G Assay, Corrected for the salt form” value ([4]; 3 months, 40° C./75% RH) was 112.01 % w/w. The “Total Known” value ([4]; 3 months, 40° C./75% RH) was 1.84%, the “Total Related Substances” value ([4]; 3 months, 40° C./75% RH) was 5.99% and the “Total Unknown” value ([4]; 3 months, 40° C./75% RH) was 4.15%. For the same compound, the “Known Related Substances HN33177” value ([4]; Initial) was 0.75%, the “Known Related Substances HN67003” value ([4]; Initial) was 0.04% and the “Known Related Substances HN75083” value ([4]; Initial) was 0.07%. For the same compound, the “M6G Assay, Anhydrous basis” value ([4]; Initial) was 89.21 % w/w, the “M6G Assay, As is basis” value ([4]; Initial) was 83.90 % w/w and the “M6G Assay, Corrected for the salt form” value ([4]; Initial) was 108.12 % w/w. For the same compound, the “Total Known” value ([4]; Initial) was 0.86%, the “Total Related Substances” value ([4]; Initial) was 0.86% and the “Total Unknown” value ([4]; Initial) was 0.00%. The “assay values throughout the study” value ([4]; all storage conditions, material a phosphate/base mixture) was “around 110%”.
